Source: paper PMC4999848 (Toxins, 2016)
Entries after “also recorded” stand apart in the source; their conditions may differ.

What was measured:
recombinant human CES1 = molecular target: T1, recombinant human CES1 (Homo sapiens, UniProt P23141); experiment: Deacetylation of 3/15ADON by recombinant CES1; assay type: in vitro ADME; design: purchased R&D Systems; settings: 5 μg/mL CES1, up to 24 h, data not shown
T1 sequence (P23141 18-567): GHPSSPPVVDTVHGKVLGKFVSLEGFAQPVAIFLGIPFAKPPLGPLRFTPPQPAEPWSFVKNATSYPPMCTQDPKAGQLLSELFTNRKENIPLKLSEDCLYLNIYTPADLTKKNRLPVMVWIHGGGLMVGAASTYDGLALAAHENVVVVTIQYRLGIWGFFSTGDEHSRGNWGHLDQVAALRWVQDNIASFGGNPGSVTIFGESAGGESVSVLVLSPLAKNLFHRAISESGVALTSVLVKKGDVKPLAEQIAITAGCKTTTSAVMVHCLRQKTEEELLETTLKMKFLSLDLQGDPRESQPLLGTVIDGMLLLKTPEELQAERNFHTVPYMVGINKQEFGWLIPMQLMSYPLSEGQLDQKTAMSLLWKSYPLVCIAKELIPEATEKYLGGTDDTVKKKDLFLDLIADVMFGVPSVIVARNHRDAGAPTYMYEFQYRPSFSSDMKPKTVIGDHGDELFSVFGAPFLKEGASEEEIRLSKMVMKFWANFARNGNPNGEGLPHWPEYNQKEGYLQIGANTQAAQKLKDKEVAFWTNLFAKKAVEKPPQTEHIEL
Method: Stock solutions of DON, 3ADON and 15ADON at 2 mg/mL were prepared in absolute ethanol and stored at −20 °C. For deacetylation assay, 3- or 15ADON were incubated with cells, explants, bacteria or digestive enzymes after being diluted in PBS^++ at a final concentration of 100 μM. PBS^++ solution containing only ethanol (at 1.5% final concentration) or DON (at 100 μM) were used in parallel as negative and positive control, respectively. For cells and explants, deacetylation assay take place in 6-well plates, wells being filled with 2 mL of PBS^++ containing either ethanol, DON, 3- or 15ADON. For fecal bacteria and digestive enzyme assay, deacetylation assay was conducted in 2 mL Eppendorf tubes filled with 1.5 mL of PBS^++ containing either ethanol, DON, 3- or 15ADON. In vitro intestinal digestion by luminal enzymes was performed using porcine enzymes from Sigma-Aldrich and physiological conditions. […] In all cases, aliquots of the reaction solution were collected immediately (i.e., “time zero” sample) or after the indicated time period at 37 °C and analyzed by HPLC. […]
Deacetylation was monitoring both in term of disappearance of 3- or 15ADON and formation of DON. […] Quantification was based on calibration with the corresponding standard using Millinium Software (Waters, Saint Quentin Falavier, France).

human fecal bacteria = settings: 48 h incubation; cited from earlier work
[1] = design: method as in PMID 26343882; settings: chickens, after oral or i.v treatment; cited from earlier work

| SMILES | Deacetylation activity of CES1 on 3/15ADON (recombinant human CES1) | % deacetylation (human fecal bacteria) | Acetylated form in blood [1] |
| --- | --- | --- | --- |
| CC(=O)O[C@@H]1C[C@]2(C)[C@@]3(CO)[C@H](O)C(=O)C(C)=C[C@H]3O[C@H]1[C@@]21CO1 [3ADON, 3-acetyldeoxynivalenol] | failed at observing any deacetylation activity; also recorded: unable to cause the deacetylation | 78% ± 30% | – |
| CC(=O)OC[C@]12[C@H](O)C(=O)C(C)=C[C@H]1O[C@@H]1[C@H](O)C[C@@]2(C)[C@]12CO2 [15ADON, 15-acetyldeoxynivalenol] | failed at observing any deacetylation activity; also recorded: unable to cause the deacetylation | – | traces of 15ADON are present in the blood |
